Results from article PMC11097166, “Imidazole-Derived Alkyl and Aryl Ethers: Synthesis, Characterization, In Vitro Anticancer and Antioxidant Activities, Carbonic Anhydrase I–II Inhibition Properties, and In Silico Studies” (ACS Omega, 2024).

Experiments:
FRAP antioxidant assay = details: trolox standard curve
Experimental: The FRAP method was used to determine the antioxidant power of compounds. This method, which determines the reducing power of compounds, was developed by Benzie and Strain.[48] Fe(III)–TPTZ complex is formed as a result of the reaction of Fe(III) with tripyridyltriazine (TPTZ), and this complex is reduced to the Fe(II)–TPTZ complex with the antioxidant in the environment. The color of this complex is dark blue and gives the maximum absorbance at 593 nm.[48] Incubation is performed for up to 30 min to complete the reaction, and the correct absorbance values were read. The FRAP values of the samples were calculated as “μmol trolox equiv/g sample” with the help of the standard curve obtained using methanol–trolox standard solutions (0; 0.2; 0.4; 0.6; 0.8; and 1.0 μmol/mL) which were used as the positive control.[49] […]

[1] = test system: HT29 colon cancer cell line; assay: MTT cell viability assay on HT29; format: cell-based, human; details: Homo sapiens, HT-29, 24 h incubation
Text: (§1) 96-well plates were used for seeding cells. […] All compounds were run in three repetitions.

[2] = test system: L929 healthy mouse fibroblast cells; assay: Annexin V binding assay (flow cytometry) on L929; format: cell-based; details: L929, IC50 dose of the compound for the cancer cell line, 24 h
Experimental: (§2) Approximately 5 × 10^5 seeds of each cancer cell were seeded into six-well plates and allowed to adhere overnight. […] Cells harvested after trypsinization were suspended in PBS containing at least 1% FBS. The manufacturer’s instructions were then followed, and the Annexin V and dead cell reagent were mixed with the cells. Afterward, the percentage of dead, viable, early and late apoptotic cells was determined using the muse cell analyzer (Millipore) device.

[3] = MTT cell viability assay on L929; details: mouse, L929 fibroblast cells
Experimental: (§5) Human breast adenocarcinoma cell line (MCF7), rat glial tumor cell line (C6), healthy mouse fibroblast cell line (L929), and colon cancer (HT29) cell line were purchased from ATCC (American type culture collection) and studied.
(§6) The cytotoxic effects of all compounds by MTT analysis on L929, HT29, MCF7, and C6 cell lines were investigated. 96-well plates were used for seeding cells. Approximately 1 × 10^4 cells were seeded in each well. Cells were allowed to adhere for 24 h, and then the compounds were applied at different concentrations. All compounds were run in three repetitions. Wells with a maximum of 100 μM compounds were incubated for 24 h. Three wells without compounds treated with only DMSO (with total volume of % 0.5) were used as negative controls, and cisplatin was used as a positive control. […] After the MTT interaction, the FRAP wells were emptied, and DMSO solution was placed in them. The formazan crystals formed were dissolved with this solution, and the number of viable cells in each well was determined by color change.

[4] = test system: L929 mouse fibroblast cell line; assay: MTT cell viability assay on L929; details: for toxicity in L929 healthy cell line: 100 μM, 24 h, triplicate, MTT; for IC50: Mus musculus, L929, 24 h, read-out: IC50 L929
Experimental: as §5, §6

hCA II = hCA II (Homo sapiens, UniProt P00918); assay: CA esterase activity method, hCA II; format: biochemical; details: Table S3; note: key: +: active; -: not effect
Text: (§3) The method used to spectrophotometrically detect the antiepileptic, antiglaucoma, and […] effects of the obtained compounds in vitro is the esterase activity method. This method relies on the esterase activity of CA for the hydrolysis of p-nitrophenyl acetate as a substrate, which is a part of the reaction mechanism involving p-nitrophenol or p-nitrophenolate.

[5] = test system: MCF7 human breast adenocarcinoma cell line; assay: MTT cell viability assay on MCF7; format: cell-based; details: Homo sapiens, MCF7, 24 h incubation
Text: as §1

HT29 cell line [6] = assay: Annexin V binding assay (flow cytometry) on HT29; format: cell-based, human; details: HT29, IC50 dose, 24 h
Experimental: as §2

[7] = test system: C6 rat glial tumor cell line; assay: MTT cell viability assay on C6; format: cell-based; details: 24 h incubation
Text: as §1

HT29 cell line [8] = assay: Cell cycle (DNA content) assay on HT29; format: cell-based, human; details: colon cancer (HT29), IC50 dose
Experimental: (§4) DNA content (cell cycle) analyses were performed with the MUSE flow cytometry device. When the IC50 results obtained were evaluated, compounds 3a and 3b caused selective toxicity in the HT29 and C6 cancer cell lines compared to L929, respectively. Therefore, the main pathways of compounds 3a and 3b in cells were determined with the MUSE (cell cycle) kit.

hCA I = hCA I (Homo sapiens, UniProt P00915); assay: CA esterase activity method, hCA I; format: biochemical; details: Table S3; note: key: +: active; -: not effect
Sequence of hCA I (P00915 whole entry): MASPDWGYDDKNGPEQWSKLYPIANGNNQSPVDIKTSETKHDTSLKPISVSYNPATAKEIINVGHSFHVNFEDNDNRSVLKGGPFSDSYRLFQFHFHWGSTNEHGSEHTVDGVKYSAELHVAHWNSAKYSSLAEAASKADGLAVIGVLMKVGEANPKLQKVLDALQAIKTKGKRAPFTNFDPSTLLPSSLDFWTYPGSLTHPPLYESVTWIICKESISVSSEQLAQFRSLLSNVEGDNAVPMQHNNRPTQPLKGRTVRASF
Text: as §3

C6 cell line [9] = assay: Cell cycle (DNA content) assay on C6; format: cell-based, rat; details: glioblastoma (C6), IC50 dose
Experimental: as §4

C6 cell line [10] = assay: Annexin V binding assay (flow cytometry) on C6; format: cell-based, rat; details: C6, IC50 dose, 24 h
Experimental: as §2

| IC50 [1] | Effect on hCA II isoenzyme activity (hCA II) | IC50 [5] | IC50 ([7]; Rattus norvegicus, 24 h) | Effect on hCA I isoenzyme activity (hCA I) | SMILES | FRAP (FRAP antioxidant assay) | viability at 24 h, 100 μM [3] | toxicity in L929 healthy cell line [4] | IC50 [4] | other results |
| --- | --- | --- | --- | --- | --- | --- | --- | --- | --- | --- |
| 44.1 ± 4.27 µM | + | 84.9 ± 21.5 µM | 20.1 ± 0.32 µM | + | OC(Cn1ccnc1)c1ccc(Cl)cc1 (centres unmarked) [Compound 4b, 1-(4-Chlorophenyl)-2-(1H-imidazol-1-yl)ethanol] | 0.25 ± 0.02 μmol trolox equiv/g | ≥ 50% | not toxic | 105 ± 10.1 µM |  |
| 102 ± 11.5 µM | + | 122 ± 28.8 µM | 26.1 ± 5.7 µM | + | CCOC(Cn1ccnc1)c1ccccc1 (centres unmarked) [Compound 7, 1-(2-Ethoxy-2-phenylethyl)-1H-imidazole] | 0.10 ± 0.08 μmol trolox equiv/g | ≥ 50% | not toxic | 173 ± 16.6 µM |  |
|  | + |  |  | + | CCOC(Cn1ccnc1)c1ccc(Cl)cc1 (centres unmarked) [Compound 10, 1-(2-(4-Chlorophenyl)-2-ethoxyethyl)-1H-imidazole] | 0.20 ± 0.03 μmol trolox equiv/g |  |  |  |  |
|  | + |  |  | + | CCCOC(Cn1ccnc1)c1ccc(Cl)cc1 (centres unmarked) [Compound 11, 1-(2-(4-Chlorophenyl)-2-propoxyethyl)-1H-imidazole] | 0.31 ± 0.07 μmol trolox equiv/g |  |  |  |  |
|  | + |  |  | + | C=CCOC(Cn1ccnc1)c1ccc(Cl)cc1 (centres unmarked) [Compound 12, 1-(2-(Allyloxy)-2-(4-chlorophenyl)ethyl)-1H-imidazole] | 0.28 ± 0.04 μmol trolox equiv/g |  |  |  |  |
|  | + |  |  | + | CCOC(Cn1ccnc1)c1ccc(OC)cc1 (centres unmarked) [Compound 13, 1-(2-Ethoxy-2-(4-methoxyphenyl)ethyl)-1H-imidazole] | 0.15 ± 0.06 μmol trolox equiv/g |  |  |  |  |

The remaining lines, values behind:

| SMILES | IC50 [1] | Effect on hCA II isoenzyme activity (hCA II) | IC50 [5] | IC50 ([7]; Rattus norvegicus, 24 h) | Effect on hCA I isoenzyme activity (hCA I) | FRAP (FRAP antioxidant assay) | viability at 24 h, 100 μM [3] | toxicity in L929 healthy cell line [4] | IC50 [4] | other results |
| --- | --- | --- | --- | --- | --- | --- | --- | --- | --- | --- |
| O=C(Cn1ccnc1)c1ccccc1 [Compound 3a, 2-(1H-Imidazol-1-yl)-1-phenylethanone] | 20.9 ± 1.02 µM | - | 161 ± 15.5 µM | 15.76 ± 0.08 µM | - | 0.18 ± 0.07 μmol trolox equiv/g | ≥ 50% | not toxic | 174 ± 10.1 µM | Apoptosis profile: Live [2]: 98.37%; Apoptosis profile: Early Apop. (HT29 cell line [6]): 7.83%; Apoptosis profile: Late Apop./Dead (HT29 cell line [6]): 22.56%; Apoptosis profile: Live (HT29 cell line [6]): 60.77%; phase in which the cell cycle stopped (HT29 cell line [8]): G0/G1 phase |
| O=C(Cn1ccnc1)c1ccc(Cl)cc1 [Compound 3b, 1-(4-Chlorophenyl)-2-(1H-imidazol-1-yl)ethanone] | 59.6 ± 5.73 µM | - | 117 ± 14.5 µM | 10.7 ± 0.38 µM | - | 0.20 ± 0.04 μmol trolox equiv/g | ≥ 50% | not toxic | 138 ± 4.06 µM | Apoptosis profile: Live [2]: 99.17%; phase in which the cell cycle stopped (C6 cell line [9]): G0/G1 phase; IC50 [7]: 10.7 ± 0.38 µM; Apoptosis profile: Early Apop. (C6 cell line [10]): 14.96%; Apoptosis profile: Late Apop./Dead (C6 cell line [10]): 18.33%; Apoptosis profile: Live (C6 cell line [10]): 65.46% |
| COc1ccc(C(=O)Cn2ccnc2)cc1 [Compound 3c, 2-(1H-Imidazol-1-yl)-1-(4-methoxyphenyl)ethanone] |  | - |  |  | - | 0.21 ± 0.03 μmol trolox equiv/g |  |  |  |  |
| OC(Cn1ccnc1)c1ccccc1 (centres unmarked) [Compound 4a, 2-(1H-Imidazol-1-yl)-1-phenylethanol] | 74.6 ± 6.67 µM | + | 104 ± 15.3 µM | 35.2 ± 0.55 µM | + | 0.31 ± 0.01 μmol trolox equiv/g | ≥ 50% | not toxic | 166 ± 11.9 µM |  |
| CCCOC(Cn1ccnc1)c1ccccc1 (centres unmarked) [Compound 8, 1-(2-Phenyl-2-propoxyethyl)-1H-imidazole] |  | + |  |  | + | 0.19 ± 0.02 μmol trolox equiv/g |  |  |  |  |
| C=CCOC(Cn1ccnc1)c1ccccc1 (centres unmarked) [Compound 9, 1-(2-(Allyloxy)-2-phenylethyl)-1H-imidazole] |  | + |  |  | + | 0.12 ± 0.01 μmol trolox equiv/g |  |  |  |  |
